Results as given in ChEMBL document CHEMBL4265952, “One-pot, multi-component synthesis and structure-activity relationships of peptoid-based histone deacetylase (HDAC) inhibitors targeting malaria parasites” (Eur J Med Chem, 2018).
One block for each molecule: values may come before it.

Columns and labels:
Histone deacetylase 1 = Histone deacetylase 1 (Homo sapiens, UniProt Q13547); assay: Inhibition of recombinant full length human C-terminal His/FLAG tagged HDAC1 expressed in baculovirus infected Sf9 insect cells using ZMAL as substrate measured after 90 mins by fluorescence assay
Sequence of Histone deacetylase 1 (Q13547 whole entry): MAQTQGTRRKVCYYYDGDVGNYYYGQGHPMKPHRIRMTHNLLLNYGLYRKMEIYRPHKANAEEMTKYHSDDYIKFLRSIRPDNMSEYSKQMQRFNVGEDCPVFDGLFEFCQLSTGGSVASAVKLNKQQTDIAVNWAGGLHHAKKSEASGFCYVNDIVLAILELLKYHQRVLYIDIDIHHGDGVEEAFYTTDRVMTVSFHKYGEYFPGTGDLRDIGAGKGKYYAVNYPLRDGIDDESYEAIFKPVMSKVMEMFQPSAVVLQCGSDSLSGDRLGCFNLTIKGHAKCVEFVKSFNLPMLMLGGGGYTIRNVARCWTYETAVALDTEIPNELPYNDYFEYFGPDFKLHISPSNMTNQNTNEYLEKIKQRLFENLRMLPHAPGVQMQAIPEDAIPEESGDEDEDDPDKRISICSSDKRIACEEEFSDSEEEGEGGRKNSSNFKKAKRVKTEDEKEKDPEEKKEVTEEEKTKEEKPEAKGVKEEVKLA

Plasmodium falciparum [1] = assay: Gametocytocidal activity against synchronized Plasmodium falciparum NF54 mature stage 5 gametocytes after 48 hrs by ATP bioluminescence assay; type: functional, organism-based; conditions: NF54, 48 h
Plasmodium berghei = assay: Antiplasmodial activity against exo-erythrocytic stage of GFP-Luc-fused Plasmodium berghei ANKA infected in human HepG2 cells after 48 hrs by bioluminescence assay; conditions: HepG2, 48 h
[2] = Cytotoxicity against human HepG2A16 cells expressing GFP-fused CD81 after 48 hrs by bioluminescence assay; conditions: HepG2A16, 48 h
Plasmodium falciparum [3] = assay: Gametocytocidal activity against transgenic GFP-fused Plasmodium falciparum NF54 late stage gametocytes after 72 hrs by Mitotracker Red CMH2XRos staining based imaging method; type: functional, organism-based; conditions: NF54, 72 h
Plasmodium falciparum [4] = assay: Gametocytocidal activity against transgenic GFP-fused Plasmodium falciparum NF54 early stage gametocytes after 72 hrs by Mitotracker Red CMH2XRos staining based imaging method; type: functional, organism-based; conditions: NF54, 72 h
NFF [5] = assay: cells; conditions: Homo sapiens
Description: Cytotoxicity against human NFF cells

Plasmodium falciparum [6] = assay: microbe, parasite or virus in culture; conditions: Dd2, 3 h
Description: Antiplasmodial activity against multidrug-resistant asexual ring stage Plasmodium falciparum Dd2 infected in human erythrocytes by [3H]-hypoxanthine incorporation assay

[7] = molecular target: T1, Protein deacetylase HDAC6 (Homo sapiens, UniProt Q9UBN7); assay: Inhibition of recombinant full length human N-terminal GST-tagged HDAC6 expressed in baculovirus infected Sf9 insect cells using ZMAL as substrate measured after 90 mins by fluorescence assay
T1 sequence (Q9UBN7 whole entry): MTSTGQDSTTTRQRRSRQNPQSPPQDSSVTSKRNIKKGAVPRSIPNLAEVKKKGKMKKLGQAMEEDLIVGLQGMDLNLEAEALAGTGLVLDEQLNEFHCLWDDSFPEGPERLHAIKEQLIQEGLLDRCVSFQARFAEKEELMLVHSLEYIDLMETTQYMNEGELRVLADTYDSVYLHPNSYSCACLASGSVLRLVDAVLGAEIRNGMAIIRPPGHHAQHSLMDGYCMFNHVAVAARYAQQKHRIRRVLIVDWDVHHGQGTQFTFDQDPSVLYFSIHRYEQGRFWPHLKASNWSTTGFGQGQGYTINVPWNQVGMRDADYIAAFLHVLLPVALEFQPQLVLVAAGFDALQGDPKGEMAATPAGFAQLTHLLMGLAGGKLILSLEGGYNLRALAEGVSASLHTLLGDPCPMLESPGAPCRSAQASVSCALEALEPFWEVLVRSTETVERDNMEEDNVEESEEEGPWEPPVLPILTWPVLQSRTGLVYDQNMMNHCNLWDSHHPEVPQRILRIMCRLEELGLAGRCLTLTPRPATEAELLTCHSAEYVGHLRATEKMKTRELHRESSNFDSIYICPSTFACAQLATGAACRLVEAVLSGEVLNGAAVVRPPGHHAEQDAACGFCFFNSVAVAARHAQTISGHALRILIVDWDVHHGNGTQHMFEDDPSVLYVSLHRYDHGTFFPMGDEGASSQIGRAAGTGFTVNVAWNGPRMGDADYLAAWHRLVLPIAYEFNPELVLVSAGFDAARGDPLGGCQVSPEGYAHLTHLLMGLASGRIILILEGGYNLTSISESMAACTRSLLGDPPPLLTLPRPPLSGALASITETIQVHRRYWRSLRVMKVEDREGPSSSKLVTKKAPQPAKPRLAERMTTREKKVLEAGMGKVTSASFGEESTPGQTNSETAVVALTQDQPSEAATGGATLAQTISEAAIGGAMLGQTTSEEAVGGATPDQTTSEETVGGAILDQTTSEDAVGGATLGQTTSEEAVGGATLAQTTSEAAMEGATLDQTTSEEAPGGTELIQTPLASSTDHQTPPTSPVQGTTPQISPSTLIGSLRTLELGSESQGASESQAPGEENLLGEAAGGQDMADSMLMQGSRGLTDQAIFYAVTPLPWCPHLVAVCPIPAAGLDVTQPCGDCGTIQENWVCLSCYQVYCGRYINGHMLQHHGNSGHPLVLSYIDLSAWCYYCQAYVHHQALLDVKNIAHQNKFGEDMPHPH

Plasmodium falciparum [8] = assay: Gametocytocidal activity against transgenic GFP-fused Plasmodium falciparum NF54 late stage gametocytes at 40 uM after 72 hrs by Mitotracker Red CMH2XRos staining based imaging method relative to control; type: functional
Plasmodium falciparum [9] = assay: microbe, parasite or virus in culture; conditions: 3D7, 3 h
Description: Antiplasmodial activity against drug-sensitive asexual ring stage Plasmodium falciparum 3D7 infected in human erythrocytes by [3H]-hypoxanthine incorporation assay

in vitro [10] = conditions: human
Description: Selectivity index, ratio of IC50 for human NFF cells to IC50 for drug-sensitive asexual ring stage Plasmodium falciparum 3D7 infected in human erythrocytes

in vitro [11] = conditions: human; remark: listed apart in the source
Description: Selectivity index, ratio of IC50 for human NFF cells to IC50 for multidrug-resistant asexual ring stage Plasmodium falciparum Dd2 infected in human erythrocytes

[12] = Selectivity index, ratio of IC50 for human HepG2A16 cells to IC50 for exo-erythrocytic stage of GFP-Luc-fused Plasmodium berghei ANKA infected in human HepG2 cells
Plasmodium falciparum [13] = type: functional, organism-based; conditions: 3D7
HEK293 = assay: Cytotoxicity against HEK293 cells after 48 hrs by resazurin dye based assay; type: ADME, cell-based; conditions: Homo sapiens, HEK293, 48 h
NFF [14] = type: ADME, cell-based; conditions: Homo sapiens, 72 h
Plasmodium falciparum [15] = type: functional, organism-based; conditions: Dd2
Plasmodium falciparum [16] = assay: Antiplasmodial activity against Plasmodium falciparum

Compound: Cc1ccc(NC(=O)CN(Cc2ccc(C(=O)NO)cc2)C(=O)c2ccc(N(C)C)cc2)cc1
IC50 (Histone deacetylase 1): 80 nM

Compound: Cc1ccc(NC(=O)CN(Cc2ccc(C(=O)NO)cc2)C(=O)c2cc(C)cc(C)c2)cc1
IC50 (Plasmodium falciparum [1]): 10100 nM
IC50 (Plasmodium berghei): 5550 nM
IC50 [2]: 21400 nM
IC50 (Plasmodium falciparum [3]): 7280 nM
IC50 (Plasmodium falciparum [4]): 7600 nM
IC50 (NFF [5]): > 10000 nM
IC50 (Plasmodium falciparum [6]): 27 nM

Compound: CCCCNC(=O)CN(Cc1ccc(C(=O)NO)cc1)C(=O)c1ccc(N(C)C)cc1
IC50 (Histone deacetylase 1): 40 nM
IC50 [7]: 35 nM

Compound: O=C(CN(Cc1ccc(C(=O)NO)cc1)C(=O)c1cccc2ccccc12)NC1CCCCC1
IC50 (Histone deacetylase 1): 552 nM

Compound: Cc1ccc(C(=O)N(CC(=O)NC2CCCCC2)Cc2ccc(C(=O)NO)cc2)cc1C
IC50 (Histone deacetylase 1): 304 nM

Compound: Cc1ccc(C(=O)N(CC(=O)NC(C)(C)C)Cc2ccc(C(=O)NO)cc2)cc1C
Activity (Plasmodium falciparum [8]): 92%
IC50 (Histone deacetylase 1): 428 nM
IC50 [7]: 57 nM

Compound: Cc1ccc(NC(=O)CN(Cc2ccc(C(=O)NO)cc2)C(=O)c2cccc3ccccc23)cc1
IC50 (Plasmodium falciparum [9]): 39 nM
selectivity ratio (in vitro [10]): 256 to 303
selectivity ratio (in vitro [11]): 256 to 303
IC50 (NFF [5]): > 10000 nM
IC50 (Plasmodium falciparum [6]): 33 nM

Compound: CC(C)c1ccc(C(=O)N(CC(=O)NC2CCCCC2)Cc2ccc(C(=O)NO)cc2)cc1
IC50 (Histone deacetylase 1): 86 nM
IC50 [7]: 64 nM

IC50 (Plasmodium berghei): 0.014 nM
Compound: O=C1C(O)=C([C@H]2CC[C@H](c3ccc(Cl)cc3)CC2)C(=O)c2ccccc21 [ATOVAQUONE]
selectivity ratio [12]: > 35000
IC50 [2]: > 500 nM

IC50 (Plasmodium falciparum [13]): 60 to 130 nM
IC50 (NFF [14]): 1420 to 2370 nM
IC50 (Plasmodium falciparum [15]): 60 to 130 nM
Compound: O=C(/C=C/c1cccc(S(=O)(=O)Nc2ccccc2)c1)NO [BELINOSTAT]
IC50 (HEK293): 1420 to 2370 nM

Compound: CC[C@H](C)[C@H](NC(=O)[C@H]([C@@H](C)CC)N(C)C(C)=O)C(=O)N[C@H](C(=O)N[C@@H](CC(C)C)C(=O)[C@@]1(C)CO1)[C@@H](C)O [EPOXOMYCIN]
IC50 (Plasmodium falciparum [1]): 7 nM

Compound: CN(C)c1ccc2nc3ccc(N(C)C)cc3[s+]c2c1 [METHYLENE BLUE ANHYDROUS]
IC50 (Plasmodium falciparum [1]): 480 nM

IC50 (Plasmodium falciparum [13]): 10 to 30 nM
IC50 (NFF [14]): 70 to 180 nM
IC50 (Plasmodium falciparum [15]): 10 to 30 nM
Compound: Cc1[nH]c2ccccc2c1CCNCc1ccc(/C=C/C(=O)NO)cc1 [PANOBINOSTAT]
IC50 (HEK293): 70 to 180 nM

Compound: COc1ccc2nc3cc(Cl)ccc3c(Nc3cc(CN4CCCC4)c(O)c(CN4CCCC4)c3)c2n1 [PYRONARIDINE]
IC50 (Plasmodium falciparum [3]): 1710 nM
IC50 (Plasmodium falciparum [4]): 29 nM

IC50 (Plasmodium falciparum [16]): 8 to 11 nM
Compound: CC(/C=C/C(=O)NO)=C\[C@@H](C)C(=O)c1ccc(N(C)C)cc1 [TRICHOSTATIN]
